From patent US4346087A, “Antibacterial surface active agent containing azaalkenelactam” (priority 1979, dated 1982)
≈ marks a conversion by molar mass, not a printed value. Where two headings read alike, the source gives them in different places.

Assays:
Format in all cases: cell-based
[1] = test system: Desulfovibrio desulfuricans IFO 13699; test: MIC against Desulfovibrio desulfuricans
From the text: (§1) Below are described the antibacterial activities of the compounds in the compositions according to this invention.
(§2) The testing method complied with the standard method of Japan Sociaty of Chemotherapy.

Escherichia coli NIHJ = test: MIC against Escherichia coli NIHJ
From the text: as §1, §2

[2] = test system: Staphylococcus aureus FDA 209P; test: MIC against Staphylococcus aureus FDA 209P
From the text: as §1, §2

[3] = Desulfovibrio desulfuricans, IFO13699, 24 h
[4] = Escherichia coli, Table 1, azaalkenelactams, heart infusion agar, 37° C., 24 hours, read-out: MIC
[5] = Staphylococcus aureus, FDA209P, 24 h
[6] = Staphylococcus aureus, FDA209P, Table 2, derivatives having a carboxylate radical, heart infusion agar, 37° C., 24 hours, read-out: MIC
[7] = Staphylococcus aureus, FDA209P, Table 1, azaalkenelactams, heart infusion agar, 37° C., 24 hours, read-out: MIC
[8] = Escherichia coli, Table 2, derivatives having a carboxylate radical, heart infusion agar, 37° C., 24 hours, read-out: MIC

Compound	MIC [1, 3] [µg/mL]	MIC [2, 5] [µg/mL]	MIC (Escherichia coli NIHJ; Escherichia coli, 24 h) [µg/mL]	other results
CCCCCCCCCCCCCCCCCCCCCCNCCN1CCN=C(C)CC1=O [Example 22, 4-docosylaminoethyl-7-methyl-3,6-dihydro-2H-1,4-diazepin-5-one]	12.5 (≈ 26.2 µM)	25 (≈ 52.3 µM)	–	MIC (Escherichia coli NIHJ; [4]): 800 µg/mL (≈ 1670 µM)
CCCCCCCCCCCCN1CCN=CC(C)C1=O (stereo not drawn) [Example 42, 4-dodecyl-6-methyl-3,6-dihydro-2H-1,4-diazepin-5-one]	6.25 (≈ 21.2 µM)	12.5 (≈ 42.4 µM)	400 (≈ 1360 µM)	–
CCCCCCCCCCCCCCNCCN1CC[N+](CC(=O)[O-])=CCCC1=O [4-tetradecylaminoethyl-4-aza-1-azoniacyclooct-8-en-5-one-1-acetate]	6.25 (≈ 14.8 µM)	–	100 (≈ 236 µM)	MIC [2, 6]: 3.12 µg/mL (≈ 7.36 µM)
CCCCCCCCCc1ccc(OCC(O)CNCCNCCNCCN2CCN=CC(C)C2=O)cc1 (stereo not drawn) [Example 52, 4-nonylphenoxy(2-hydroxy)propylaminoethylaminoethylaminoethyl-6-methyl-3,6-dihydro-2H-1,4-diazepin-5-one]	50 (≈ 94 µM)	–	–	MIC (Escherichia coli NIHJ; [4]): 100 µg/mL (≈ 188 µM); MIC [2, 7]: 100 µg/mL (≈ 188 µM)
CCCCCCCCCCCC(=O)OCCN1CCCN=C(C)CC1=O [Example 14, 1-lauroyloxyethyl-4-methyl-3,6,7,8-tetrahydro-1,5-diazocin-2-one]	12.5 (≈ 34.1 µM)	–	–	MIC (Escherichia coli NIHJ; [4]): 1600 µg/mL (≈ 4370 µM); MIC [2, 7]: 100 µg/mL (≈ 273 µM)
CCCCCCCCCCCCN1CCC[N+](CC(=O)[O-])=CC(C)C1=O (stereo not drawn) [1-dodecyl-3-methyl-1-aza-5-azoniacyclooct-4-en-2-one-5-acetate]	25 (≈ 68.2 µM)	50 (≈ 136 µM)	–	MIC (Escherichia coli NIHJ; [8]): 1600 µg/mL (≈ 4370 µM)
CCCCCCCCCCCCNCCNCCN1CC[N+](CC(=O)[O-])=C(C)CC1=O [4-dodecylaminoethylaminoethyl-1-azonia-4-azacyclohept-7-en-5-one-1-acetate]	6.25 (≈ 14.2 µM)	12.5 (≈ 28.5 µM)	100 (≈ 228 µM)	–
CCCCCCCCCc1ccc(OCC(O)CNCCNCCNCCN2CCN=CCC(C)C2=O)cc1 (stereo not drawn) [Example 69, 4-nonylphenoxy(2-hydroxy)propylaminoethylaminoethylaminoethyl-6-methyl-2,3,6,7-tetrahydro-1,4-diazocin-5-one]	50 (≈ 91.6 µM)	200 (≈ 366 µM)	200 (≈ 366 µM)	–
CCCCCCCCCCCC(=O)OCCN1CC[N+](CC(=O)[O-])=CC(C)C1=O (stereo not drawn) [4-lauroyloxyethyl-6-methyl-1-azonia-4-azacyclohept-7-en-5-one-1-acetate]	50 (≈ 122 µM)	50 (≈ 122 µM)	200 (≈ 487 µM)	–
CCCCCCCCCCCCNCCCN1CCC[N+](CC(=O)[O-])=C(C)CC1=O [1-dodecylaminopropyl-4-methyl-1-aza-5-azoniacyclooct-4-en-2-one-5-acetate]	50 (≈ 118 µM)	12.5 (≈ 29.5 µM)	100 (≈ 236 µM)	–
CCCCCCCC(=O)NCCN1CC[N+](CC(=O)[O-])=C(C)CC1=O [4-octamidoethyl-7-methyl-1-azonia-4-azacyclohept-7-en-5-one-1-acetate]	50 (≈ 141 µM)	–	100 (≈ 283 µM)	MIC [2, 6]: 800 µg/mL (≈ 2260 µM)
CCCCCCCCCCCCN1CCCN=CC(C)C1=O (stereo not drawn) [Example 44, 1-dodecyl-3-methyl-3,6,7,8-tetrahydro-1,5-diazocin-2-one]	25 (≈ 81 µM)	50 (≈ 162 µM)	–	MIC (Escherichia coli NIHJ; [4]): 800 µg/mL (≈ 2590 µM)
1-behenoyloxypropyl-3-methyl-1-aza-5-azoniacyclooct-4-en-2-one-5-acetate	–	–	–	MIC [1]: 25 µg/mL; MIC (Escherichia coli NIHJ): 100 µg/mL; MIC [2]: 50 µg/mL
4-methylbenzylpoly(2 moles)oxypropyleneoxypropyl-6-methyl-2,3,6,7-tetrahydro-1,4-diazocin-5-one [Example 67]	–	–	–	MIC [1]: 50 µg/mL; MIC (Escherichia coli NIHJ): 400 µg/mL; MIC [2]: 200 µg/mL
CCCCCCCCCCC(O)CN1CCN=CC(C)C1=O (stereo not drawn) [Example 43, 4-(2-hydroxy)dodecyl-6-methyl-3,6-dihydro-2H-1,4-diazepin-5-one]	12.5 (≈ 40.3 µM)	12.5 (≈ 40.3 µM)	400 (≈ 1290 µM)	–
CCCCCCCCCCCCN1CC[N+](CC(=O)[O-])=CC(C)C1=O (stereo not drawn) [4-dodecyl-6-methyl-1-azonia-4-azacyclohept-7-en-5-one-1-acetate]	25 (≈ 70.9 µM)	25 (≈ 70.9 µM)	–	MIC (Escherichia coli NIHJ; [8]): 800 µg/mL (≈ 2270 µM)
CCCCCCCC(=O)OCCN1CC[N+](CC(=O)[O-])=C(C)CC1=O [4-octoyloxyethyl-7-methyl-1-azonia-4-azacyclohept-7-en-5-one-1-acetate]	50 (≈ 141 µM)	–	–	MIC (Escherichia coli NIHJ; [8]): 3200 µg/mL (≈ 9030 µM); MIC [2, 6]: 800 µg/mL (≈ 2260 µM)
1-coconutalkyl-4-methyl-3,6,7,8-tetrahydro-1,5-diazocin-2-one [Example 15]	–	–	–	MIC [1]: 6.25 µg/mL; MIC (Escherichia coli NIHJ; Table 1, azaalkenelactams, heart infusion agar, 37° C., 24 hours): 1600 µg/mL; MIC [2]: 50 µg/mL
1-coconutalkyl-4-methyl-1-aza-5-azoniacyclooct-4-en-2-one-5-acetate	–	–	–	MIC [1]: 12.5 µg/mL; MIC (Escherichia coli NIHJ; Table 2, derivatives having a carboxylate radical, heart infusion agar, 37° C., 24 hours): 3200 µg/mL; MIC [2]: 200 µg/mL
CCCCCCCCC=CCCCCCCCCN1CC[N+](CC(=O)[O-])=CCCC1=O [4-(9-octadecenyl)-4-aza-1-azoniacyclooct-8-en-5-one-1-acetate]	50 (≈ 115 µM)	200 (≈ 460 µM)	400 (≈ 920 µM)	–
